According to patent US9908896B2, “P38 and JNK MAPK inhibitors for the treatment and prophylaxis of degenerative diseases of the nervous system” (ALLINKY BIOPHARMA, priority 2014, dated 2018):

How the values were obtained:
[1] = molecular target: T1, recombinant activated p38alpha (Homo sapiens, UniProt Q16539); experiment: in vitro kinase assay p38 (ADP-Glo); format: biochemical; conditions: 100 μM ATP; for inhibition at 1 µM: 1 μM compound; for inhibition at 10 µM: 10 μM compound
T1 construct: purchased ProQinase
Protocol: (§1) Purified recombinant activated p38alpha (10 nM)(ProQinase) was preincubated 10 minutes at 30° C. with the compound of interest at concentrations between 1 and 100 μM in duplicate in a final volume of 30 μl of kinase buffer (Hepes 60 mM pH 7.5, MgCl2 3 mM, MnCl2 3 mM, sodium orthovanadate 3 μM, DTT 1.2 mM). After preincubation, peptide substrate (SignalChem #P03-58) and ATP were added to a final concentration of 10 μM and 100 μM respectively, and then incubated 40 minutes at 30° C. for the kinase reaction. Phosphorylation was analysed with ADP-Glo™ (Promega #V9101) and emitted luminescence was measured with BMG Fluostar microplate reader.

[2] = tested on: recombinant activated JNK; experiment: in vitro kinase assay JNK (ADP-Glo); format: biochemical; conditions: 100 μM ATP; for % of inhibition at 1 μM, JNK: 1 μM compound; for % of inhibition at 10 μM, JNK: 10 μM compound
Protocol: as §1, with “JNK” for “p38alpha”, “nM) (ProQinase)” for “nM)(ProQinase)”, “analyzed” for “analysed”

[3] = tested on: TNF-α secretion by a human monocytic cell line, THP-1; experiment: Inhibition of TNF-α secretion by LPS-stimulated THP-1 cells (ELISA); format: cell-based; conditions: LPS-stimulated THP-1, TNF-α; for inhibition at 1 µM: 1 μM compound, read-out: % of inhibition at 1 μM, THP1; for inhibition at 10 µM: 10 μM compound, read-out: % of inhibition at 10 μM, THP1
Protocol: Thp1-Inhibition of TNF-α Secretion by a Human Monocytic Cell Line, THP-1
THP-1 cells, growing in log phase, were collected by centrifugation and resuspended in RPMI 1640 (Sigma Aldrich), to a final cell concentration of 2×10^6 cells/ml. Cells were plated into 24-well plates (BD Biosciences). Dilutions of compounds in dimethyl sulfoxide (DMSO) were added to the culture to a final concentration M. The final DMSO concentration was 0.5%. The cells […] suspensions were preincubated with compounds for 1 h at 37° C. in a 5% CO2 humidified atmosphere before the addition of LPS (Sigma Aldrich, L2654) to a g/ml. After that, cells were incubated for 3 h followed final concentration of […] by centrifugation to pellet cells. Cell supernatants were stored at 4° C. until human analysis for TNF-α content. TNF-α levels were determined by ELISA (TNF Biotrak, GE Healthcare) following the manufacturer's directions. The percentage inhibition was calculated for each compound concentration tested, and the IC50 was calculated for each compound.

T1 sequence (Q16539 whole entry): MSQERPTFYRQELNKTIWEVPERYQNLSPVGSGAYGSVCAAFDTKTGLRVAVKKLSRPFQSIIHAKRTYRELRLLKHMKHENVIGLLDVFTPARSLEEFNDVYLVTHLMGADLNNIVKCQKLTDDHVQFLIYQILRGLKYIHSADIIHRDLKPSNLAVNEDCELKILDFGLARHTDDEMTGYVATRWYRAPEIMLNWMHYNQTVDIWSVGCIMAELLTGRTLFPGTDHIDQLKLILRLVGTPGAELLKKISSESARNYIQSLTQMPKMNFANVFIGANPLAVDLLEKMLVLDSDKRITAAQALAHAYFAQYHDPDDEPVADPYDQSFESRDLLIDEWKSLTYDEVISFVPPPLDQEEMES

SMILES | inhibition at 1 µM [1] [%] | inhibition at 10 µM [1] [%] | % of inhibition at 1 μM, JNK [2] [%] | % of inhibition at 10 μM, JNK [2] [%] | inhibition at 1 µM [3] [%] | inhibition at 10 µM [3] [%]
CCOc1ccc(Nc2nc3nonc3nc2N2CCC(Sc3ccc(C)cc3)CC2)cc1 [Comp 6] | 32 | 95 | 35 | 91 | 28 | 39
CCCOc1cccc(Nc2nc3nonc3nc2N2CCC(Sc3ccc(C)cc3)CC2)c1 [Comp 7] | 19 | 87 | 34 | 101 | 21 | 33
Clc1ccc(OC2CCN(c3nc4nonc4nc3Nc3ccc4occc4c3)CC2)cc1 [Comp 12] | 15 | 95 | 24 | 90 | 45 | 51
CCCOc1ccc(Nc2nc3nonc3nc2N2CCC(Sc3ccc(C)cc3)CC2)cc1 [Comp 5] | 41 | 100 | 37 | 97 | 44 | 65
CCOc1ccc(Nc2nc3nonc3nc2N2CCN(Cc3ccc(Cl)cc3)CC2)cc1 [Comp 10] | 25 | 52 | 30 | 50 | 19 | 31
CCOc1cccc(Nc2nc3nonc3nc2N2CCC(Oc3ccc(Cl)cc3)CC2)c1 [Comp 4] | 25 | 68 | 31 | 74 | 19 | 41
CCOc1cccc(Nc2nc3nonc3nc2N2CCC(Sc3ccc(C)cc3)CC2)c1 [Comp 8] | 16 | 64 | 32 | 55 | 17 | 37
CCOc1ccc(Nc2nc3nonc3nc2N2CCC(Oc3ccc(Cl)cc3)CC2)cc1 [Comp 2] | 41 | 87 | 36 | 91 | 42 | 69
CCCOc1cccc(Nc2nc3nonc3nc2N2CCC(Oc3ccc(Cl)cc3)CC2)c1 [Comp 3] | 23 | 100 | 31 | 96 | 37 | 58
Clc1ccc(OC2CCN(c3nc4nonc4nc3Nc3ccc4c(c3)CCO4)CC2)cc1 [Comp 11] | 21 | 105 | 24 | 74 | 30 | 50
CCCOc1ccc(Nc2nc3nonc3nc2N2CCN(Cc3ccc(Cl)cc3)CC2)cc1 [Comp 9] | 23 | 68 | 26 | 51 | 27 | 39
